ChEMBL document CHEMBL5236578, “Structure-activity relationship study of 4,5-didehydroguadiscine, an aporphine alkaloid showing potent melanogenesis-inhibitory activity in B16 melanoma cells” (Bioorg Med Chem Lett, 2022)
Where a name gives a salt, the structure may show the parent alone.

How the values were obtained:
[1] = Anti-melanogenic activity in theophylline-stimulated mouse B16 melanoma 4A5 cells assessed as inhibition of melanogenesis; type: functional, cell-based
[2] = Potency index, ratio of arbutin IC50 to test compound IC50 for anti-melanogenic activity in theophylline-stimulated mouse B16 melanoma 4A5 cells assessed as inhibition of melanogenesis; type: functional

In the case of `COc1ccc2c(c1)C(C)(C)c1nccc3cc4c(c-2c13)OCO4`, the IC50 [1] is reported as 4.9 µM and the “Ratio IC50” value [2] is reported as 40.

With `COc1cccc(C(C)(C)c2nccc3cc(OC)ccc23)c1` the IC50 [1] was > 30 µM.

For `COc1cccc(C(C)(C)c2nccc3cc4c(cc23)OCO4)c1`, the IC50 [1] was > 30 µM.

`CC1(C)c2ccccc2-c2c3c(cc4ccnc1c24)OCO3` gave an IC50 [1] of 6.7 µM.

With `COc1cc2c(cc1OC)[C@@H](Cc1ccc(O)cc1)N(C)CC2` the IC50 [1] was 6.5 µM.

With `CC(C)(c1ccccc1)c1nccc2ccccc12` the IC50 [1] was > 30 µM.

Work on `COc1ccc2c(c1)C(C)(C)c1nccc3cc(OC)cc-2c13` yielded an IC50 [1] of 7.5 µM.

Compound `CC1(C)c2ccccc2-c2cccc3ccnc1c23` has an IC50 [1] of 3.1 µM.

With `CC(C)(c1ccccc1)c1nccc2cc3c(cc12)OCO3` the IC50 [1] was > 30 µM.

In the case of `COc1cc2c3c(nccc3c1)C(C)(C)c1ccccc1-2`, the IC50 [1] is reported as 5 µM.

For `COc1ccc2c(C(C)(C)c3ccccc3)nccc2c1`, the IC50 [1] was > 30 µM.

With `COc1ccc2ccnc(C(C)(C)c3ccccc3)c2c1` the IC50 [1] was 18.1 µM.

Compound `COc1ccc2ccnc3c2c1-c1ccccc1C3(C)C` has an IC50 [1] of 4 µM.

Work on `OC[C@H]1O[C@@H](Oc2ccc(O)cc2)[C@H](O)[C@@H](O)[C@@H]1O` [ARBUTIN] yielded an IC50 [1] of 174 µM.

In the case of `COc1cc2c3c(c1OC)-c1ccccc1C[C@H]3N(C)CC2` [NUCIFERINE HYDROCHLORIDE], the IC50 [1] is reported as 7.1 µM.
